From article PMC11231114 (EJNMMI Research, 2024)

Columns and labels:
potassium channel hERG = molecular target: T1, potassium channel hERG (Homo sapiens, UniProt Q12809); assay: Radioligand binding assay (LeadProfilingScreen SafetyScreen panel); settings: 1 µM
T1 construct: purchased Eurofins Panlabs, Inc. PP68
Method: (§1) The possibility of pharmacological interactions of SYN2 was assessed in vitro in radioligand binding assays on key pharmacological target classes including GPCRs, drug transporters, ion channels, nuclear receptors and enzymes (LeadProfilingScreen SafetyScreen, PP68, Panel of 68 receptors, Eurofins Panlabs, Inc.). There was only one SYN2 concentration of 1 µM used in the study.
(§2) IC50 values from pharmacodynamics assessment were determined by a non-linear, least squares regression analysis using MathIQ™ (ID Business Solutions Ltd., UK). Where inhibition constants (Ki) are presented, the Ki values were calculated using the equation of Cheng and Prusoff using the observed IC50 of the tested compound, the concentration of radioligand employed in the assay, and the historical values for the KD of the ligand (obtained experimentally at Eurofins Panlabs, Inc.). Where presented, the Hill coefficient (nH), defining the slope of the competitive binding curve, was calculated using MathIQ™.

[1] = molecular target: T2, muscarinic M2 acetylcholine receptor (Homo sapiens, UniProt P08172); assay: as above; settings: 1 µM
T2 construct: purchased Eurofins Panlabs, Inc. PP68
T2 sequence (P08172 1-466): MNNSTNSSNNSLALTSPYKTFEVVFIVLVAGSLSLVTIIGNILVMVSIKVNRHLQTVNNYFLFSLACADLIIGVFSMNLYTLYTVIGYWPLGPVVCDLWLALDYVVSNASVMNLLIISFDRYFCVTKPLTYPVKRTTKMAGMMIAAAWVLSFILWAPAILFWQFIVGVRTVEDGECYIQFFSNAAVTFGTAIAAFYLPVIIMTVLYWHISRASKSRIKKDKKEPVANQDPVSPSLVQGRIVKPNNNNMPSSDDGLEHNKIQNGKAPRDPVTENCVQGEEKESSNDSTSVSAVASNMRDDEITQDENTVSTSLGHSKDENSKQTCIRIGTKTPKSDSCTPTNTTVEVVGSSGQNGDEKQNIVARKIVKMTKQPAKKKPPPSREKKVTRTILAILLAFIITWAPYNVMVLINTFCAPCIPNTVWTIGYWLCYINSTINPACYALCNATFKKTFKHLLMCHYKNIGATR
Method: as §1, §2

[2] = molecular target: T3, muscarinic acetylcholine M1 receptor (Homo sapiens, UniProt P11229); assay: as above; settings: 1 µM
T3 construct: purchased Eurofins Panlabs, Inc. PP68
T3 sequence (P11229 1-460): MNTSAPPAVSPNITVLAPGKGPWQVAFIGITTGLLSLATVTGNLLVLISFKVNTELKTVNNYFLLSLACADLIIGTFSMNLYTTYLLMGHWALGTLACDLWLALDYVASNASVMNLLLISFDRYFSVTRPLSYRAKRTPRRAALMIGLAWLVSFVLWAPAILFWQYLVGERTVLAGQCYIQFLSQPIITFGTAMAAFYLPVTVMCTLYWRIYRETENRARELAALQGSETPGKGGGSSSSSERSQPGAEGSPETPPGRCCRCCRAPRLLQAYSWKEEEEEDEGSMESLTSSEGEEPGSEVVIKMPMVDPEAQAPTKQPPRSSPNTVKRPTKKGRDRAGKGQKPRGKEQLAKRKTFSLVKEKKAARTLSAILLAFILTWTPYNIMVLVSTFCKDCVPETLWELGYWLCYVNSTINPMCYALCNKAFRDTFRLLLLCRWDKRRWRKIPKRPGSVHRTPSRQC
Method: as §1, §2

[3] = system: GPCRs, drug transporters, ion channels, nuclear receptors and enzymes; assay: Radioligand binding assays, remaining 65 assays of the panel of 68; settings: 1 µM
Method: as §1, §2

[4] = Plasma pharmacokinetics of non-radioactive SYN2, single i.v. 2 mg/kg, LC-MS/MS; type: in vivo, Wistar rats
Method: The pharmacokinetic study was also conducted using non-radioactive reference standard of [^18F]SYN2 after a single i.v. administration at a dose of 2 mg/kg in rats. Blood samples of about 0.5 ml were collected in K3-EDTA tubes at pre-dose time and 4 min, 15 min, 30 min, 60 min, 4 h, and 24 h after injection (three rats were used at each time point, each rat was bled twice). Blood samples were then centrifuged at approx. 3270 g at 5 ± 3 °C for 10 min to extract plasma, divided in two aliquots and analysed (54 plasma samples in total). The concentrations of SYN2 were determined according to a LC-MS/MS validated method according to the Guidance for Industry (FDA) and Guidance on Validation of Bioanalytical Methods (EMA).

Wistar rats = assay: Extended single dose toxicity study, i.v. 2 mg/kg b.w.
Method: Throughout the experiment, the animals’ behaviour was observed and their weight recorded.
The normality distribution was tested with Shapiro-Wilk test. For homogeneity of variance Brown-Forsythe test has been used. For normal distribution and homogeneous variances results, Student’s t-test was used. In the absence of normal distribution, Mann-Whitney test was used. In the case of non-homogenous variance, Cochrane-Cox test was used.

muscarinic M2 = molecular target: T4, muscarinic M2 (Homo sapiens, UniProt P08172); assay: Functional assay at several concentrations; type: biochemical; settings: antagonistic effect
T4 sequence (P08172 1-466): T2 sequence (P08172 1-466)
Method: (§3) IC50 values from pharmacodynamics assessment were determined by a non-linear, least squares regression analysis using MathIQ™ (ID Business Solutions Ltd., UK). […] Where presented, the Hill coefficient (nH), defining the slope of the competitive binding curve, was calculated using MathIQ™.

hERG = hERG (Homo sapiens, UniProt Q12809); assay: Functional assay at several concentrations; type: biochemical; settings: antagonistic effect
Method: as §3

dog hepatocytes = assay: Metabolite profiling in cryopreserved hepatocytes (in vitro MetID); type: in vitro ADME; settings: for Relative abundance of metabolites calculated as % of parent (SYN2), Dog: 1 µM SYN2, 37 °C
Method: (§4) The metabolite profiling and characterization experiment of SYN2 molecule (in vitro MetID, Admescope) was conducted to evaluate potential metabolic pathways. In order to characterize the metabolites of SYN2, the compound was incubated in cryopreserved rat, dog and human hepatocytes. Prior to the incubation, the hepatocytes were thawed, suspended in Williams medium E and then centrifuged to receive a target density of about 1 million cells/ml. A SYN2 solution of 1 µM was then added to the hepatocyte suspension and incubated at 37 °C for 0, 30 and 60 min. The incubations were stopped by the addition of acetonitrile, then frozen and centrifuged to remove precipitated proteins. Supernatants were then analysed with ultra-performance liquid chromatography (UPLC) and high-resolution mass spectrometry (HRMS).
(§5) Compound Discoverer (CD) was used for data mining with manual confirmation for metabolite profiling and characterization.

rat hepatocytes = assay: as above; type: in vitro ADME; settings: for Relative abundance of metabolites calculated as % of parent (SYN2), Rat: 1 µM SYN2, 37 °C
Method: as §4, §5

human hepatocytes = assay: as above; type: in vitro ADME; settings: for Relative abundance of metabolites calculated as % of parent (SYN2), Human: 1 µM SYN2, 37 °C
Method: as §4, §5

[5] = Expected human Cmax after body surface area correction; settings: read-out: expected Cmax, proposed maximum limit dose of 100 µg (2 µg/kg for a 50-kg patient)
[6] = clinical examinations, 2 mg/kg b.w. i.v., treated vs control
[7] = clinical-chemical examinations, 2 mg/kg b.w. i.v., treated vs control
[8] = post mortem examination, 2 mg/kg b.w. i.v., treated vs control

T1 sequence (Q12809 whole entry): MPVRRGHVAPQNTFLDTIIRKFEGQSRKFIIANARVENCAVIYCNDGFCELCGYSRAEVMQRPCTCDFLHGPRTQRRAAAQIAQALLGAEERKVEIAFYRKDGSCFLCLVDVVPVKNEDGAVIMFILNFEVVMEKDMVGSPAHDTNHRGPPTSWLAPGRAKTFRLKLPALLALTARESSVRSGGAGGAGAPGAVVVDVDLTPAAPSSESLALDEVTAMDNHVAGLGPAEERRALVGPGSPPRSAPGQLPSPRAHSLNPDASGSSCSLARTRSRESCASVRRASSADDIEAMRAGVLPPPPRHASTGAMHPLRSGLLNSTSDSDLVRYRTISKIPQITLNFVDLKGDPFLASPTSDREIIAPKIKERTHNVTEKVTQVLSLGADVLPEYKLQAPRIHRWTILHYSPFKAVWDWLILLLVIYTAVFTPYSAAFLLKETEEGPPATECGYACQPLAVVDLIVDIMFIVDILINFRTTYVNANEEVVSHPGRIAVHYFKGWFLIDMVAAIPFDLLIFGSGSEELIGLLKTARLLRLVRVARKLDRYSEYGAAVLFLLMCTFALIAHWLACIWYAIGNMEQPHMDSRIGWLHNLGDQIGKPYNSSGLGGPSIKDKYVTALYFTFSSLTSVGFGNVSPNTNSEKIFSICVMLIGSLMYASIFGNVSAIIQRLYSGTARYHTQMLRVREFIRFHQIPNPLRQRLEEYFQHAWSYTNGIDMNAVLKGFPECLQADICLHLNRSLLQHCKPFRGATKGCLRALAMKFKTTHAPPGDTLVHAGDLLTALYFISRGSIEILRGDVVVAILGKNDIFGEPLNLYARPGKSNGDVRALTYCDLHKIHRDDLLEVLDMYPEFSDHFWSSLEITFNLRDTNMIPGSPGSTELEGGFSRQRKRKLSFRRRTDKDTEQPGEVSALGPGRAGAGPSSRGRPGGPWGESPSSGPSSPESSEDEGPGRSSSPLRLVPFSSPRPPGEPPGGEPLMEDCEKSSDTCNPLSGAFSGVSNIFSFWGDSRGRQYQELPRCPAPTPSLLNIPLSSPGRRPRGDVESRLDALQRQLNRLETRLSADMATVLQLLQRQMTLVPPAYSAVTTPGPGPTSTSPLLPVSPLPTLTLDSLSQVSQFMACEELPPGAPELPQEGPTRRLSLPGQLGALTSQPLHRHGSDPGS
hERG, sequence (Q12809 whole entry): as above

Structure (SMILES): CN(C)c1ccc2cc3ccc(N(C)C)cc3[n+](CCF)c2c1 [SYN2]
- inhibition (potassium channel hERG): 57%
- inhibition [1]: 68%
- inhibition [2]: 58%
- mean response, remaining 65 assays [3]: 7.63%
- median response, remaining 65 assays [3]: 4%
- AUCt ([4]; rat plasma): 73.75 ng·h/mL
- Clast ([4]; rat plasma): 8.95 ng/mL
- Cmax ([4]; rat plasma): 368.67 ng/mL
- Tmax ([4]; rat plasma): 4.2 min
- Vz ([4]; rat plasma): 0.99 L/kg
- Cl ([4]; rat plasma clearance): 43.2 mL/min/kg
- T½λz ([4]; terminal half-life, rat plasma): 15.6 min
- Body weight (Wistar rats; [6]): -
- Clinical observations (Wistar rats; [6]): -
- Mortality (Wistar rats; [6]): -
- Biochemical investigations (Wistar rats; [7]): +
- Enzymatic investigations (Wistar rats; [7]): +
- Haematological investigations (Wistar rats; [7]): -
- Gross examination (Wistar rats; [8]): +
- Histopathological examinations (Wistar rats; [8]): +
- Weight of internal organs (Wistar rats; [8]): +
- Tolerability in the toxicological study (Wistar rats; single i.v. 2 mg/kg b.w., Wistar rats): well-tolerated
- No Observed Adverse Effect Level (NOAEL) (Wistar rats; single i.v. dose, Wistar rats): 2 mg/kg
- IC50 (muscarinic M2): ~1 µM
- IC50 (hERG): ~1 µM
- Relative abundance of metabolites calculated as % of parent (SYN2), Dog (dog hepatocytes; 30 min): 100 % of parent
- Relative abundance of metabolites calculated as % of parent (SYN2), Dog (dog hepatocytes; 60 min): 100 % of parent
- unchanged parent remaining (dog hepatocytes; after 60 min, dog hepatocytes): 5%
- Relative abundance of metabolites calculated as % of parent (SYN2), Rat (rat hepatocytes; 30 min): 100 % of parent
- Relative abundance of metabolites calculated as % of parent (SYN2), Rat (rat hepatocytes; 60 min): 100 % of parent
- unchanged parent remaining (rat hepatocytes; after 60 min, rat hepatocytes): 32%
- Relative abundance of metabolites calculated as % of parent (SYN2), Human (human hepatocytes; 30 min): 100 % of parent
- Relative abundance of metabolites calculated as % of parent (SYN2), Human (human hepatocytes; 60 min): 100 % of parent
- unchanged SYN2 remaining (human hepatocytes; after 60 min, human hepatocytes): 70%
- Cmax [5]: 1.1 nM
